Activity calls are given as the source filed them.

What is called clearance is a measure of how efficiently the substance is removed, as volume per time. A low value points to a low capacity for elimination. Usually half-life stands for the time needed for the level to fall by half in the phase considered. Broadly, the Cmax is the maximum level reached in the sampled fluid or tissue. Broadly, the DC50 is the concentration giving 50% degradation.

Series [1] has as its target T1, Protein cereblon/Tyrosine-protein kinase BTK (Homo sapiens, UniProt Q06187+Q96SW2). The series can be described thus: PROTAC activity at BTK/CRBN in human MINO cells assessed as BTK protein degradation by measuring onset time activity at 20 nM by Western blotting analysis. The series is classed as cell-based. A general note: A western blot detects proteins with antibodies after separation by electrophoresis.
Target sequence in this assay (Q06187 2-659 limits assumed): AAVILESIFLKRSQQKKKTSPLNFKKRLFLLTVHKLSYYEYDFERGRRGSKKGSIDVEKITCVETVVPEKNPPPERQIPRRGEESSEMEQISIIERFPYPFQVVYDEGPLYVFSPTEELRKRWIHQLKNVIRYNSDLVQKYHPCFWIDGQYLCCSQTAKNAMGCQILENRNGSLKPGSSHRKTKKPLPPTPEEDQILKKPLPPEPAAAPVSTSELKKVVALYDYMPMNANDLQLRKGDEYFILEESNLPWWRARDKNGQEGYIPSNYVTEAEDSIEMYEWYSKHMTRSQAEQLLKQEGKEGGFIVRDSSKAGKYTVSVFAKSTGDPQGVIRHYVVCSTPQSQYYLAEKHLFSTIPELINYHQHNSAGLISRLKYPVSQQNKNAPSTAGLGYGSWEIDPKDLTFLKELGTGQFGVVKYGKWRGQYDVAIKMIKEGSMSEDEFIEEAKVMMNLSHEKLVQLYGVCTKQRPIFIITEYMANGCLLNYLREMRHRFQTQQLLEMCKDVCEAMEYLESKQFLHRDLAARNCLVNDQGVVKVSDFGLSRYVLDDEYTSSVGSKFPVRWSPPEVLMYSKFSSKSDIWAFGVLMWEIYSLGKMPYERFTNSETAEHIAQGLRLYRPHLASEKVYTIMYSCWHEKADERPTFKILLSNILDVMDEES
Target sequence in this assay (Q96SW2 whole entry partner): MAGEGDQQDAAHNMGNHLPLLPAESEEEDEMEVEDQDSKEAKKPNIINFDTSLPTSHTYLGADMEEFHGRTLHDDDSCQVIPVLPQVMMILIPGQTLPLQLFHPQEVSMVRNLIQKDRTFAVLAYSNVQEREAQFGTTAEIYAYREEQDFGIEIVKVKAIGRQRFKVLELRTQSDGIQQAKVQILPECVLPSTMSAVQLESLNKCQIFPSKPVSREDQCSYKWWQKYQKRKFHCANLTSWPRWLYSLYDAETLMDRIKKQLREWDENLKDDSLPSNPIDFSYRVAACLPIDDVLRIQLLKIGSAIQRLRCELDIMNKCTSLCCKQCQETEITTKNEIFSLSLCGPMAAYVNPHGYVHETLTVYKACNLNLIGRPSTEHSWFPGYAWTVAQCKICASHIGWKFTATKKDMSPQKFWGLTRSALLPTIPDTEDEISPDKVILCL

The nature of series [2]: Clearance in Sprague-Dawley rat at 2mg/kg, iv measured upto 48 hrs. The series is classed as ADME, organism-based. As to conditions: in vivo.
For series [3], the target named is T1, Protein cereblon/Tyrosine-protein kinase BTK. The series can be described thus: PROTAC activity at BTK/CRBN in human MINO cells assessed as BTK protein degradation pretreated with 2 uM bafilomycin followed by 1 hr treated at 20 nM measured after 48 hrs by Western blotting analysis. The series is classed as cell-based. As to conditions: dose […].
Target sequence in this assay (Q06187 2-659 limits assumed): as the sequence (Q06187 2-659 limits assumed) above
Target sequence in this assay (Q96SW2 whole entry partner): as the sequence (Q96SW2 whole entry partner) above
Series [4] shares this target. The series can be described thus: PROTAC activity at BTK/CRBN in human MINO cells assessed as BTK protein degradation pretreated with 2 uM ibrutinib followed by 1 hr treated at 20 nM measured after 48 hrs by Western blotting analysis. Particulars: dose […]. Format: cell-based.
Target sequence in this assay (Q06187 2-659 limits assumed): as the sequence (Q06187 2-659 limits assumed) above
Target sequence in this assay (Q96SW2 whole entry partner): as the sequence (Q96SW2 whole entry partner) above
Series [5] relates to Mus musculus. Briefly: Antiosteoclastogenic effects in LPS-soaked ligature-induced C57BL/6J mouse periodontal disease model assessed as reduction in periodontal alveolar bone loss at 30 mg/kg, ip treated on day 0, 1,4, 7 and measured on day 10 by Micro-CT 3D scan. Format: functional, organism-based. Particulars: time 7.0 day.
Series [6] is described as follows: Half life in Sprague-Dawley rat at 4 mg/kg, ip measured upto 48 hrs. Format: ADME, organism-based. Particulars: in vivo.
Series [7] relates to Mus musculus. Briefly: Antiosteoclastogenic effects in LPS-soaked ligature-induced C57BL/6J mouse periodontal disease model assessed as reduction in periodontal alveolar bone loss by measuring increase in bone volume per tissue volume (BV/TV%) at 10 to 30 mg/kg, ip treated on day 0, 1,4, 7 and measured on day 10 by Micro-CT 3D scan. The series is classed as functional, organism-based. As to conditions: dose 10-30 mg/kg, time 7.0 day.

In series [8] the target is T2, Protein cereblon/Tyrosine-protein kinase BTK (Mus musculus) (UniProt P35991+Q8C7D2). The series can be described thus: PROTAC activity at BTK/CRBN in C57BL/6J mouse BMM cells assessed as reduction in mCSF/RANKL-stimulated NFATc1 protein expression at 25 to 100 nM followed by stimulated with mCSF/RANKL measured after 2 hrs by Western blot analysis. The series is classed as cell-based. Particulars: BMDM, dose 25-100 nM.
T2 sequence (P35991 whole entry, looked up): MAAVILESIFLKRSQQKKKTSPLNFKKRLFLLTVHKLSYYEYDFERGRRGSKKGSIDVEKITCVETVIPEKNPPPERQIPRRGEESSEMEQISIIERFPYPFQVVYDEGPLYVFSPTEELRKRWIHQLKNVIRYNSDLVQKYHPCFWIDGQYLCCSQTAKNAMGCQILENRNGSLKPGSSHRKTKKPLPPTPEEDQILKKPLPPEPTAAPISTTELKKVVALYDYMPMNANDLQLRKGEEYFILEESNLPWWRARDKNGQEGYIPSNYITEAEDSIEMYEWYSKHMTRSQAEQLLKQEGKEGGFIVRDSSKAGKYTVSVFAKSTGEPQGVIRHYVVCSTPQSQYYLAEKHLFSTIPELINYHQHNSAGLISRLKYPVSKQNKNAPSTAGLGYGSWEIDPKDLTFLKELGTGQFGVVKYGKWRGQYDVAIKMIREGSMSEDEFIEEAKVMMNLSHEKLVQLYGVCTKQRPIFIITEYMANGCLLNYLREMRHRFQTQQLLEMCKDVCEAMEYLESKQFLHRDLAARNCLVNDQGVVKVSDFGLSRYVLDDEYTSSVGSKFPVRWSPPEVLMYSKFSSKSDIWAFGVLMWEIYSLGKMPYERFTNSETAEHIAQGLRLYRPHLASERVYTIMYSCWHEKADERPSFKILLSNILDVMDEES
T2 sequence (Q8C7D2 whole entry, looked up): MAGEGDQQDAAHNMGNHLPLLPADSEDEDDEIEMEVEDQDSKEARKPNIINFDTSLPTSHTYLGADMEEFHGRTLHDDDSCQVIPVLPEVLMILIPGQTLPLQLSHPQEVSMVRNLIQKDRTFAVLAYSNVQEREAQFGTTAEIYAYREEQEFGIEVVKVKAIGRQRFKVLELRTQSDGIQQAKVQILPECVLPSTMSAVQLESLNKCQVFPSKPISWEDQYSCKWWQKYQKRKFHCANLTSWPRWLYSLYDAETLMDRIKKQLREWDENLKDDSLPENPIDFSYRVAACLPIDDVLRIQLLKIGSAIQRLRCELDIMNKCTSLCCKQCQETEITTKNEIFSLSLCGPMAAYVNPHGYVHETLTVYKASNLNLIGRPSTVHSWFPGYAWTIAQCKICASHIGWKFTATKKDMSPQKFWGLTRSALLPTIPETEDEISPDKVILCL

The nature of series [9]: Cmax in Sprague-Dawley rat at 2 mg/kg, iv measured upto 48 hrs. Format: ADME, organism-based. As to conditions: in vivo.
The test system of series [10] is BMMC. Briefly: Inhibition of RANKKL-induced upregulation of osteoclast related genes in C57BL/6J mouse BMM cells assessed as reduction in mCSF/RANKL-stimulated CTSK gene expression at 25 to 100 nM followed by stimulated with mCSF/RANKL measured after 2 hrs by qPCR analysis. Format: functional, cell-based. As to conditions: dose 25-100 nM.
In series [11] the test system is BMMC. Briefly: Inhibition of osteoclastogenesis in C57BL/6J mouse BMM cells assessed as inhibition of mCSF/RANKL-stimulated matured osteoclast formation measured after 5 days co-incubation by tartrate-resistant acid phosphatase (TRAP) staining assay. The series is classed as functional, cell-based. As to conditions: time 5.0 day.
The target of series [12] is T1, Protein cereblon/Tyrosine-protein kinase BTK. Briefly: PROTAC activity at BTK/CRBN in human MINO cells assessed as BTK protein degradation at 20 nM by Western blotting analysis. Format: cell-based. As to conditions: time lower 2.0 hrs, time upper […], TDE = time-dependent effect.
Target sequence in this assay (Q06187 2-659 limits assumed): as the sequence (Q06187 2-659 limits assumed) above
Target sequence in this assay (Q96SW2 whole entry partner): as the sequence (Q96SW2 whole entry partner) above
Series [13] shares this target. The series can be described thus: PROTAC activity at BTK/CRBN in human MINO cells assessed as BTK protein degradation measured for 4 hrs by Western blotting analysis. Format: cell-based.
Target sequence in this assay (Q06187 whole entry): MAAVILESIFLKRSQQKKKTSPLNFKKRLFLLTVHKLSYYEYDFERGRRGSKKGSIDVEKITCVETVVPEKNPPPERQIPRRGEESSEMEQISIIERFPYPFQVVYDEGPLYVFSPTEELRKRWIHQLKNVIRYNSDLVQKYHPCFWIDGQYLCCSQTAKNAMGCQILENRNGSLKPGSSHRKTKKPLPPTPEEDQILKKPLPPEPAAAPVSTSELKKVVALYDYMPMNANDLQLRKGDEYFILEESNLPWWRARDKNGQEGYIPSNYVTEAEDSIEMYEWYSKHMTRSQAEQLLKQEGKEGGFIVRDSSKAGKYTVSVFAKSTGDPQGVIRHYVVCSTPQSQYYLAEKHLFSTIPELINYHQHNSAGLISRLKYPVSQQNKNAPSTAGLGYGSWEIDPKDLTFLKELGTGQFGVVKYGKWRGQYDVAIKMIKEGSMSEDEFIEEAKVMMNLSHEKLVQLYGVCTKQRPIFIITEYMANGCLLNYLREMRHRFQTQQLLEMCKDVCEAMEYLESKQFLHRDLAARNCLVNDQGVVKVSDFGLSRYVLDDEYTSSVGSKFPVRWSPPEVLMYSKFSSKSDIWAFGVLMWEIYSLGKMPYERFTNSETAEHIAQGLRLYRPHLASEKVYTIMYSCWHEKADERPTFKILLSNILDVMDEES
Target sequence in this assay (Q96SW2 whole entry): as the sequence (Q96SW2 whole entry partner) above
The nature of series [14]: Cmax in Sprague-Dawley rat at 4 mg/kg, ip measured upto 48 hrs. Format: ADME, organism-based. As to conditions: in vivo.
Series [15] addresses T1, Protein cereblon/Tyrosine-protein kinase BTK. Briefly: PROTAC activity at BTK/CRBN in human MINO cells assessed as BTK protein degradation at 20 nM measured after 2 hrs by Western blotting analysis. The series is classed as cell-based.
Target sequence in this assay (Q06187 2-659 limits assumed): as the sequence (Q06187 2-659 limits assumed) above
Target sequence in this assay (Q96SW2 whole entry partner): as the sequence (Q96SW2 whole entry partner) above
The test system of series [16] is Mus musculus. The series can be described thus: Antiosteoclastogenic effects in LPS-soaked ligature-induced C57BL/6J mouse periodontal disease model assessed as reduction in periodontal alveolar bone loss at 10 mg/kg, ip treated on day 0, 1,4, 7 and measured on day 10 by Micro-CT 3D scan. Format: functional, organism-based. As to conditions: time 7.0 day.
The target of series [17] is T2, Protein cereblon/Tyrosine-protein kinase BTK (Mus musculus). The series can be described thus: PROTAC activity at BTK/CRBN in mCSF/RANKL-stimulated C57BL/6J mouse BMDM assessed as BTK protein degradation at 25 to 100 nM followed by stimulated with mCSF/RANKL measured after 2 hrs by Western blotting analysis. Format: cell-based. Particulars: dose 25-100 nM.
Series [18] has the same target. The series can be described thus: PROTAC activity at BTK/CRBN in mCSF/RANKL-stimulated C57BL/6J mouse BMDM assessed as reduction in phosphorylated BTK protein level at 25 to 100 nM followed by stimulated with mCSF/RANKL measured after 2 hrs by Western blotting analysis. Format: cell-based. As to conditions: dose 25-100 nM.

In the case of `Cc1cc(-c2nc(Nc3cnn(C4CCN(CC5CCN(c6ccc7c(c6)C(=O)N(C6CCC(=O)NC6=O)C7=O)CC5)CC4)c3)ncc2F)ccc1CNC(=O)c1cn(C(C)(C)C)nn1` (stereo not drawn), the TIME in [1] was less than 0.5 h. Also, the clearance in [2] was 15.2 mL/min/kg. In addition, the outcome in series [3], in series [4] and in [17] was inactive. For the same molecule, the result in [5], in series [7], in series [8], in [15], in series [16] and in [18] was Active. The half-life in [6] was 13.6 h. For the same molecule, the Cmax came to 645 ng/mL in series [9] and 184 ng/mL in [14]. In addition, the inhibition entry in series [10] and in series [11] was “Active” throughout. Further, the Activity result in series [12] was “Tde”. In addition, in series [13], the DC50 is 1.29 nM.
